Laboratory results reported in ChEMBL document CHEMBL5465560, “Selectivity Literature for EUbOPEN Chemogenomic Library” (2024).

Assays:
[1] = biological target: High affinity nerve growth factor receptor (Homo sapiens, UniProt P04629); assay: Selectivity interaction (KinomeScan (DiscoverX)) EUB0001079a NTRK1; details: at 1 µM
[2] = biological target: T1, Serine/threonine-protein kinase Nek2 (Homo sapiens) (UniProt P51955); assay: Selectivity interaction (Kinase screening (Nanosyn)) EUB0000604a NEK2
T1 sequence (whole entry): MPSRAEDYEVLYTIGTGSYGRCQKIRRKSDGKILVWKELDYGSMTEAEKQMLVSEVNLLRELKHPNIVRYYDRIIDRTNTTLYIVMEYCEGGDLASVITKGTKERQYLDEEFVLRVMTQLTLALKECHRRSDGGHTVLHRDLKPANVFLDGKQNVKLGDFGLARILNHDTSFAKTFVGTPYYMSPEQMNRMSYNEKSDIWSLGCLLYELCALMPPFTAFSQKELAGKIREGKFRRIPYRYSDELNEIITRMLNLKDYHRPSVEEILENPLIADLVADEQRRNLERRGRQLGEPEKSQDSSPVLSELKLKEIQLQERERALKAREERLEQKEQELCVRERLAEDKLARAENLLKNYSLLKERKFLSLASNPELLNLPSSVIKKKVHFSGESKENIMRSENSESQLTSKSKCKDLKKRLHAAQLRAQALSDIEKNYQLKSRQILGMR

CDK9/cyclin T1 = CDK9/cyclin T1 (Homo sapiens, UniProt P50750); assay: Selectivity interaction (Radiometric kinase assay ) EUB0000090b CDK9; format: protein-complex assay
[3] = biological target: Serine/threonine-protein kinase PAK 4 (Homo sapiens, UniProt O96013); assay: Selectivity interaction (Upstate Kinase Profiler service (Millipore)) EUB0000056c PAK4; details: at 1 µM
[4] = tested on: Proto-oncogene tyrosine-protein kinase receptor Ret (Homo sapiens), P07949 [M918T]; assay: (§1) Selectivity interaction (LanthaScreen Eu Kinase Binding Assay) EUB0001632a RET; details: at 10 µM
[5] = tested on: Proto-oncogene tyrosine-protein kinase receptor Ret (Homo sapiens), P07949 [G691S]; assay: as §1; details: at 10 µM
[6] = biological target: T2, Ephrin type-A receptor 6 (Homo sapiens) (UniProt Q9UF33); assay: Selectivity interaction (ProQinase) EUB0000171b EPHA6
T2 sequence (whole entry): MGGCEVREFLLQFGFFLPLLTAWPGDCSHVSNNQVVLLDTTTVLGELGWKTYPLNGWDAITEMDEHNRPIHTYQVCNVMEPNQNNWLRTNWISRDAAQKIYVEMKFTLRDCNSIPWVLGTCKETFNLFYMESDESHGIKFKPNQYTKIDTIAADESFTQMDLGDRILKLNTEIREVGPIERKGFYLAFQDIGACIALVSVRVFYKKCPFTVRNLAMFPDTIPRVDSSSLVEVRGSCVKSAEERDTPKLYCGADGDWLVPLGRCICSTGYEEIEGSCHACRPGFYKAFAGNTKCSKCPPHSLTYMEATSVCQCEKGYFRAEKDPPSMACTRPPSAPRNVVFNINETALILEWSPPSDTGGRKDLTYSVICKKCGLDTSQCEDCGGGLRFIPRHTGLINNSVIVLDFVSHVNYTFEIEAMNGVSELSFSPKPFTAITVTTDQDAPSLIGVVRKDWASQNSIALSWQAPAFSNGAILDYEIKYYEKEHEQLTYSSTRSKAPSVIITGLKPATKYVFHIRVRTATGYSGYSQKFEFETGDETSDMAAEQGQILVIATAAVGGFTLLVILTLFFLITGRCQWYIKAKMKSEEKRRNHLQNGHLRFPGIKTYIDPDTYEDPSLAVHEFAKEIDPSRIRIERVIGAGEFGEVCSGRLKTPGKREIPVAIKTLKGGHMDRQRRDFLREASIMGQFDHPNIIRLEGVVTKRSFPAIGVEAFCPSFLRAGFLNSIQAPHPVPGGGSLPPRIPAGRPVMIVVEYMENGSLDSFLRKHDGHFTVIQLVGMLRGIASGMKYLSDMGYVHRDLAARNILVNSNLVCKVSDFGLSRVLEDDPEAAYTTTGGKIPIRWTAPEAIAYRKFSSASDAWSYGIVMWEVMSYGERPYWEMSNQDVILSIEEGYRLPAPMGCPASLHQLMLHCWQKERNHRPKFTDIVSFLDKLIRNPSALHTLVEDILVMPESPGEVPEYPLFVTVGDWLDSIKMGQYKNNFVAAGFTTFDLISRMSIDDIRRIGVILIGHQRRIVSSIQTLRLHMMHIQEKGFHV

Chain of CDK9/cyclin T1 (O60563 whole entry): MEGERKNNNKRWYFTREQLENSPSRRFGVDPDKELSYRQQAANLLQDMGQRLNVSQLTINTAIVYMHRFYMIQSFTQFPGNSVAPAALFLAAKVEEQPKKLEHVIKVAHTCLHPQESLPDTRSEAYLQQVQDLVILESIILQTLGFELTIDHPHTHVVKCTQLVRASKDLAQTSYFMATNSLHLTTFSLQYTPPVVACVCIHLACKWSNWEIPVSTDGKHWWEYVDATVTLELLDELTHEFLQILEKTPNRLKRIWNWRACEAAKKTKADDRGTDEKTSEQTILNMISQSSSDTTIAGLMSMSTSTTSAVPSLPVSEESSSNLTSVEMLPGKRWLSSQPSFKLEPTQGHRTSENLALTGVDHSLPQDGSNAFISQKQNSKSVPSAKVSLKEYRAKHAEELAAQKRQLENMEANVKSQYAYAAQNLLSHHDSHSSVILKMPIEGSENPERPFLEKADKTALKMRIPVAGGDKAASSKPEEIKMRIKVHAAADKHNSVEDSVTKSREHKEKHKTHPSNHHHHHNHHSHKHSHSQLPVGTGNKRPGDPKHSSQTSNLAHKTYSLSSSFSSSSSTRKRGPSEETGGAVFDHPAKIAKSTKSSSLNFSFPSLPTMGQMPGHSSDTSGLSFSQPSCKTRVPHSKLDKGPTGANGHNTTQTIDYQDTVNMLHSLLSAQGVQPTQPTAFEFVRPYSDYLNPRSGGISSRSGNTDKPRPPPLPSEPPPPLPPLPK
Chain of CDK9/cyclin T1 (P50750 whole entry): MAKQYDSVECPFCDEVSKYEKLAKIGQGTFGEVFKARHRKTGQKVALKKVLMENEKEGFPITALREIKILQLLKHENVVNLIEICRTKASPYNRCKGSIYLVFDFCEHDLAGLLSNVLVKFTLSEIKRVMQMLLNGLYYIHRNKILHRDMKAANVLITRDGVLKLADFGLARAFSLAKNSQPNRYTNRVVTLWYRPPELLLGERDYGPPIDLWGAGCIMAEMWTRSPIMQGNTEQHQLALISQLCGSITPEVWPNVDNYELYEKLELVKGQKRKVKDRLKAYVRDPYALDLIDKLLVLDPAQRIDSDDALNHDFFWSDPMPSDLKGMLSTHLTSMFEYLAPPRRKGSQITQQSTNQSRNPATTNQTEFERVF
Chain of Proto-oncogene tyrosine-protein kinase receptor Ret (Homo sapiens), P07949 [M918T] (P07949 whole entry M918T): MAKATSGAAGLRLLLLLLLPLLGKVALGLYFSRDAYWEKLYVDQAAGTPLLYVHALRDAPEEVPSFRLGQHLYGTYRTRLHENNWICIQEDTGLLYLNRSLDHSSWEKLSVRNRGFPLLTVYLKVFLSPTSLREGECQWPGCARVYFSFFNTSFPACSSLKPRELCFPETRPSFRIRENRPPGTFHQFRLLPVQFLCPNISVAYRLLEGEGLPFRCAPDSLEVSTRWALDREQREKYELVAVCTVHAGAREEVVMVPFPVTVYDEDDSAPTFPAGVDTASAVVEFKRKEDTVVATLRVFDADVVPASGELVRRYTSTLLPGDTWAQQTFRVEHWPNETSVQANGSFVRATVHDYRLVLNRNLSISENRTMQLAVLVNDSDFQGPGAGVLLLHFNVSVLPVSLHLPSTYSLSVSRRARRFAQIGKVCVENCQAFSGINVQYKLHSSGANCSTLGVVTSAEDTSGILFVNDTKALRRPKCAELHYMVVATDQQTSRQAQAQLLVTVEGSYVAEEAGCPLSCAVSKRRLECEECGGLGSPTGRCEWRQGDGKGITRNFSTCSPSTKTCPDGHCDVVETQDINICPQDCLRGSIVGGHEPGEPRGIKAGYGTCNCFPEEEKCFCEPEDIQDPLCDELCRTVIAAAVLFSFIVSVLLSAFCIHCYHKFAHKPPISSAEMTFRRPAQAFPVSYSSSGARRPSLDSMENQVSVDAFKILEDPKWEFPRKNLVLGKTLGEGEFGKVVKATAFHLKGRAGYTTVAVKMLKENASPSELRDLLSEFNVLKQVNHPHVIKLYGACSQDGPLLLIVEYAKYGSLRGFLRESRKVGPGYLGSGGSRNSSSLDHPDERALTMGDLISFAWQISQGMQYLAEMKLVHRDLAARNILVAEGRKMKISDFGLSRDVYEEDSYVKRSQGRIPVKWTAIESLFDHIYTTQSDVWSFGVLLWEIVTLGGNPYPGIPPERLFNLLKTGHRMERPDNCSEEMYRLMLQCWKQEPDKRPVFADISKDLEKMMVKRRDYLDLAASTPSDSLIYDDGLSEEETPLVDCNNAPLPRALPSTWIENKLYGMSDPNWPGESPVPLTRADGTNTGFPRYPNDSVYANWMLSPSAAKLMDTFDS
Chain of High affinity nerve growth factor receptor (P04629 33-796 limits assumed): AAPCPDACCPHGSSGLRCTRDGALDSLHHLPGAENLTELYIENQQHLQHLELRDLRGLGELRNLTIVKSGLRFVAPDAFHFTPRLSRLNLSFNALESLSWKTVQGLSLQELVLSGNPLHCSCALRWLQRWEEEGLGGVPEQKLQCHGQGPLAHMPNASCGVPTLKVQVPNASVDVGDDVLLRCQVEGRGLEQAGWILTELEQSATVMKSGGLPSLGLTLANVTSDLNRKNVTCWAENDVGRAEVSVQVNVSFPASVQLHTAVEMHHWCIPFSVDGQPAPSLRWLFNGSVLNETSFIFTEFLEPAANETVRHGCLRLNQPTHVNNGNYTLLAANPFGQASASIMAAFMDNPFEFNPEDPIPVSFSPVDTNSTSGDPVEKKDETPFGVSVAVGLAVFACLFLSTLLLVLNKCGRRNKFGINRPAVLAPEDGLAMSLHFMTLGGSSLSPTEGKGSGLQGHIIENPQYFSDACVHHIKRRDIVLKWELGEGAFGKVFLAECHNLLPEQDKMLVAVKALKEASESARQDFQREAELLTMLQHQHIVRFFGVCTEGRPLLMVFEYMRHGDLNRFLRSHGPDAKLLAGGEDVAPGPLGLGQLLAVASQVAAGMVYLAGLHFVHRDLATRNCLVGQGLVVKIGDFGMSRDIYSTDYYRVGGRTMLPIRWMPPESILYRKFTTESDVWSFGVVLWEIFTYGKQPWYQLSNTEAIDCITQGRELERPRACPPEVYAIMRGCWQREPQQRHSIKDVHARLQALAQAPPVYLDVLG
Chain of Proto-oncogene tyrosine-protein kinase receptor Ret (Homo sapiens), P07949 [G691S] (P07949 whole entry G691S): as the sequence (P07949 whole entry M918T) above, with G691S, T918M counted along it
Chain of Serine/threonine-protein kinase PAK 4 (O96013 whole entry, looked up): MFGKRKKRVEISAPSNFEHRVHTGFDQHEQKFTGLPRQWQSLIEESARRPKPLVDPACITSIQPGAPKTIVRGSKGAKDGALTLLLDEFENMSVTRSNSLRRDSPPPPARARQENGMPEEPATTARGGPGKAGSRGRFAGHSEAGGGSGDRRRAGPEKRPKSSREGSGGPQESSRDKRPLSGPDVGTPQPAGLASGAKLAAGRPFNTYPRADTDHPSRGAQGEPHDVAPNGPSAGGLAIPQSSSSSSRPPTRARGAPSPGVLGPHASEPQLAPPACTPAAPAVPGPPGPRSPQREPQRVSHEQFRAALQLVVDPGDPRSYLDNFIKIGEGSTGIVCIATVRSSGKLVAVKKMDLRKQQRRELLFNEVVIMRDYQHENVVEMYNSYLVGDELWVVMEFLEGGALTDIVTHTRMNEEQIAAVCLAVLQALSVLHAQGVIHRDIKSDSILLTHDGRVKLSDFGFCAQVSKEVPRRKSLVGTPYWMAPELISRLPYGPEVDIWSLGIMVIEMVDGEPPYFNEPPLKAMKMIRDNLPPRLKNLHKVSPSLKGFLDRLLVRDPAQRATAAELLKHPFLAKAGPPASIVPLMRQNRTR

Nc1cnc(N2CCc3cc(S(=O)(=O)Nc4c(F)cc(Cl)cc4F)cc(N4CCCC4=O)c32)nc1 [TP-020n]
% of control [1]: 100%

Cc1cnc(Nc2ccc(F)cc2Cl)nc1-c1c[nH]c(C(=O)N[C@H](CO)c2cccc(Cl)c2)c1
% of inhibition [2]: 3%

CN(C)C/C=C/C(=O)Nc1ccc(C(=O)N2CCCC(Nc3ncc(Cl)c(-c4c[nH]c5ccccc45)n3)C2)cc1 (stereo not drawn)
IC50 (CDK9/cyclin T1): 10.5 µM

Cc1ccc(-c2ccc3c(ccc4sc5c(c43)NC[C@@H](C)NC5=O)n2)cn1
% of inhibition [3]: 3%

Cn1cc(-n2cnc3c(NCc4nc5cc(Cl)c(Cl)cc5[nH]4)nc(N4CCOCC4)nc32)cn1
% of inhibition [4]: -33.9% | % of inhibition [5]: -30.5%

C=CC(=O)Nc1cccc(C(=O)Nc2ccc(Nc3cc(-c4[nH]c(SC)nc4C)ccn3)cc2)c1
% of control ([6]; at 1 µM): 99% | % of control ([6]; at 5 µM): 100%
